This is an account of results in ChEMBL document CHEMBL3991601, “The target landscape of clinical kinase drugs” (Science, 2017).

Active and inactive are the calls of the source.

The target of test [1] is Epidermal growth factor receptor (Homo sapiens, UniProt P00533).
Test [2] addresses Rho-associated protein kinase 1 (Homo sapiens, UniProt Q13464).
The target in test [3] is Cell division cycle 7-related protein kinase (Homo sapiens, UniProt O00311).
Test [4] has as its target Membrane-associated progesterone receptor component 1 (Homo sapiens, UniProt O00264).
The target of test [5] is Dual specificity protein kinase CLK3 (Homo sapiens, UniProt P49761). It is filed as subcellular, K-562, COLO 205, SK-N-BE(2) and MV-4-11, Cell lysate. Particulars: read-out: Kd apparent.
Test [6] has as its target Dual specificity protein kinase CLK2 (Homo sapiens, UniProt P49760).
Test [7] concerns the target T1, Isoleucine--tRNA ligase, mitochondrial (Homo sapiens, UniProt Q9NSE4).
T1 sequence (Q9NSE4 whole entry): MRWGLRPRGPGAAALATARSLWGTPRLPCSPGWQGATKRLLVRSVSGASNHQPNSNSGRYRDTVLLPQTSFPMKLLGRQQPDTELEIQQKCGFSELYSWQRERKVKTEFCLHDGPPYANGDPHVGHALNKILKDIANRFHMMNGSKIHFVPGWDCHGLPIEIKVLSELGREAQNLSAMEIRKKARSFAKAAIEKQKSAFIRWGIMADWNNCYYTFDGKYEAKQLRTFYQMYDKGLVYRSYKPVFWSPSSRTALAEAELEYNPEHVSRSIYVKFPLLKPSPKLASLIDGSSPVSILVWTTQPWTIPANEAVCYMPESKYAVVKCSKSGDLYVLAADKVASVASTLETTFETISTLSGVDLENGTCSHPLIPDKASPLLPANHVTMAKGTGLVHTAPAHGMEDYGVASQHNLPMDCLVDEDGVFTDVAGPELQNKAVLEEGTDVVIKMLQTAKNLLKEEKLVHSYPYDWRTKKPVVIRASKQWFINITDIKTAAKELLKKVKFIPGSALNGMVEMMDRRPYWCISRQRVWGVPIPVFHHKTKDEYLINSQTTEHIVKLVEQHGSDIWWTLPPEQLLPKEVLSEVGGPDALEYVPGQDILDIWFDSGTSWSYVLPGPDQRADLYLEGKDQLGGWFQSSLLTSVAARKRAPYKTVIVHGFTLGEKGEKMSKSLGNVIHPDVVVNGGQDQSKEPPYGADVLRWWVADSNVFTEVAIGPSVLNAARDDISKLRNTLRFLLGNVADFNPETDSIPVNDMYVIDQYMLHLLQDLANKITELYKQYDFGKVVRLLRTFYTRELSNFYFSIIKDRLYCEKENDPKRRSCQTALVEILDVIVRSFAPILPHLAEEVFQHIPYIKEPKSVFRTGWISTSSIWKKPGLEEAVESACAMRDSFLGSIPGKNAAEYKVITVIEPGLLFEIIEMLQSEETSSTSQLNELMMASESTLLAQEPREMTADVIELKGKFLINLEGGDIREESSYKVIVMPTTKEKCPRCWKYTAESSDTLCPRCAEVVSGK

The target in test [8] is High affinity nerve growth factor receptor (Homo sapiens, UniProt P04629).
Sequence of High affinity nerve growth factor receptor (P04629 whole entry): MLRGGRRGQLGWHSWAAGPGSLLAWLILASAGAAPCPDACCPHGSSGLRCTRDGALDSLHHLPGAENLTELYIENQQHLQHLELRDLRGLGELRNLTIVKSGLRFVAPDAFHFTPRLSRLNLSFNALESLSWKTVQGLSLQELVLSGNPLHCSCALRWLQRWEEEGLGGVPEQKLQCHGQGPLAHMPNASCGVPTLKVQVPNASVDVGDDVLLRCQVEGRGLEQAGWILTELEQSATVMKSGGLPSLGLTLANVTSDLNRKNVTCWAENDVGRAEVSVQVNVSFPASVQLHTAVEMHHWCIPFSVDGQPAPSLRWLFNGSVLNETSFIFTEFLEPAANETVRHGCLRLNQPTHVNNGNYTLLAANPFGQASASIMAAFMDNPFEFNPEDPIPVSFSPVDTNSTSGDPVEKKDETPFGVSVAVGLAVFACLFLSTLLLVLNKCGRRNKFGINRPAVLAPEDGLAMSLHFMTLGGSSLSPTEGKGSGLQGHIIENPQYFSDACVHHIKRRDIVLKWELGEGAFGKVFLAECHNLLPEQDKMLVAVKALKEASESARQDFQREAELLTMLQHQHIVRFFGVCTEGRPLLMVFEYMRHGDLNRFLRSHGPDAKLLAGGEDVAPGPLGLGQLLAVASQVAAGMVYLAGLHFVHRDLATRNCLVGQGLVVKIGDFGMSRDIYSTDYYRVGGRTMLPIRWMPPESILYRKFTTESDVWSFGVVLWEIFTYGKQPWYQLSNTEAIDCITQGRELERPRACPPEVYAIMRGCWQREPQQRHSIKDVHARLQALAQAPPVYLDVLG
Test [9] has as its target MAP kinase-activated protein kinase 3 (Homo sapiens, UniProt Q16644).
Also: in the data inactive means no Kd found up to 30 µM.

Sequence of Epidermal growth factor receptor (P00533 whole entry): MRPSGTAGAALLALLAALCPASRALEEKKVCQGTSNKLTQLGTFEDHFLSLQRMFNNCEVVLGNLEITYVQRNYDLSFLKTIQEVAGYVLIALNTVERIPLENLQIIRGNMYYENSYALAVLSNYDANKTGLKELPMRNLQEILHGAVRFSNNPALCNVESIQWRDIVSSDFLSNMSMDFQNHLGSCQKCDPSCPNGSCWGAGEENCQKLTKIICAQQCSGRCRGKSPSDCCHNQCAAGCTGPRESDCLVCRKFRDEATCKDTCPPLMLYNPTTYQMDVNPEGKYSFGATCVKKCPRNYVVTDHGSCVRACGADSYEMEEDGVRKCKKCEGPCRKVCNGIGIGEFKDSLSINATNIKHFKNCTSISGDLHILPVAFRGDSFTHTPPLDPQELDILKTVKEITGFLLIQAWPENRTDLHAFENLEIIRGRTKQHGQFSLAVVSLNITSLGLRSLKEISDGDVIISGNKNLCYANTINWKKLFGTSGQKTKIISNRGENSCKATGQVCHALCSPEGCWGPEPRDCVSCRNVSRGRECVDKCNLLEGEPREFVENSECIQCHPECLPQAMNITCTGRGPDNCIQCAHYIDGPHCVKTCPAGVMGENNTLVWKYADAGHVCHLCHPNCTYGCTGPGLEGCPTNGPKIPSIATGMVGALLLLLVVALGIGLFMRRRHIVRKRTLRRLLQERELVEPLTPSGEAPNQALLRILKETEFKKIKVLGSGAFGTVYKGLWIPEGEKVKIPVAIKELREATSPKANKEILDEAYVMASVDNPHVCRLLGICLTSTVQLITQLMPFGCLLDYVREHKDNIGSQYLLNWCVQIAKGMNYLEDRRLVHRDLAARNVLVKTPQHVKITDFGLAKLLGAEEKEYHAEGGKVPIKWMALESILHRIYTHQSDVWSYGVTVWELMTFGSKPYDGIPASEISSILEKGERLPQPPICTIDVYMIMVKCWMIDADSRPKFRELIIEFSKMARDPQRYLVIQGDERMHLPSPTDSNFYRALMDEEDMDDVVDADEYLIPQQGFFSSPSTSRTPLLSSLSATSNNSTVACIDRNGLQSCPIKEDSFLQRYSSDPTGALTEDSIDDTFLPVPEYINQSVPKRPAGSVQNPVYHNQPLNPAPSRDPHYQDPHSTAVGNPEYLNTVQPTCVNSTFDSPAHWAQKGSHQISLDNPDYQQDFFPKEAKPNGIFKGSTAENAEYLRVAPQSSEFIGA
Sequence of Cell division cycle 7-related protein kinase (O00311 whole entry): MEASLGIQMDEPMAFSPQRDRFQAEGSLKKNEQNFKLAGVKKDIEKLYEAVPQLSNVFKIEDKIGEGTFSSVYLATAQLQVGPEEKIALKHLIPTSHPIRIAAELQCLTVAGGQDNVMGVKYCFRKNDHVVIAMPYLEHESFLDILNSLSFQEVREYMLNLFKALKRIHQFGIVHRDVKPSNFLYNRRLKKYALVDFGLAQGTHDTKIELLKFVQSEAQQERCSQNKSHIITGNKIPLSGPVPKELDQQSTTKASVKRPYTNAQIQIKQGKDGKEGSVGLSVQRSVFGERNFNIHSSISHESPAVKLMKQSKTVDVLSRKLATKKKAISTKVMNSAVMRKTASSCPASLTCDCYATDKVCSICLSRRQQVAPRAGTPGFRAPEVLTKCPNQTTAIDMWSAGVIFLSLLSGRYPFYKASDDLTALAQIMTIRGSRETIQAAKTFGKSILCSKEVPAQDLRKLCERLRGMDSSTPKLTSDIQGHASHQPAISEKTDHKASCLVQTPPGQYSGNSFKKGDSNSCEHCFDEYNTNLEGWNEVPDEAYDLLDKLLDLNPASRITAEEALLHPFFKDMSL
Sequence of Dual specificity protein kinase CLK2 (P49760 whole entry): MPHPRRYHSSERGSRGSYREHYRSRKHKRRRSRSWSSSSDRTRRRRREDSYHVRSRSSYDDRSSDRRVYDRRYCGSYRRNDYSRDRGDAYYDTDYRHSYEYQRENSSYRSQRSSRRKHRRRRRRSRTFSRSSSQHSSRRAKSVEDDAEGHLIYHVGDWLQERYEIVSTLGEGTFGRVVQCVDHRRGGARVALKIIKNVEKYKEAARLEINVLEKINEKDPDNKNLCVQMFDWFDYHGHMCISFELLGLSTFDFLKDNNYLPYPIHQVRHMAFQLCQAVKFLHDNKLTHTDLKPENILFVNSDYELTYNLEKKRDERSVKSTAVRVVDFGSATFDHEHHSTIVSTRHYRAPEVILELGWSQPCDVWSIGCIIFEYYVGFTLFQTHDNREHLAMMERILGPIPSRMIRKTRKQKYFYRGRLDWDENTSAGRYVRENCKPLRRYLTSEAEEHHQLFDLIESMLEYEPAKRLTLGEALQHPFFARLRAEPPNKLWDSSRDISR
Sequence of MAP kinase-activated protein kinase 3 (Q16644 whole entry): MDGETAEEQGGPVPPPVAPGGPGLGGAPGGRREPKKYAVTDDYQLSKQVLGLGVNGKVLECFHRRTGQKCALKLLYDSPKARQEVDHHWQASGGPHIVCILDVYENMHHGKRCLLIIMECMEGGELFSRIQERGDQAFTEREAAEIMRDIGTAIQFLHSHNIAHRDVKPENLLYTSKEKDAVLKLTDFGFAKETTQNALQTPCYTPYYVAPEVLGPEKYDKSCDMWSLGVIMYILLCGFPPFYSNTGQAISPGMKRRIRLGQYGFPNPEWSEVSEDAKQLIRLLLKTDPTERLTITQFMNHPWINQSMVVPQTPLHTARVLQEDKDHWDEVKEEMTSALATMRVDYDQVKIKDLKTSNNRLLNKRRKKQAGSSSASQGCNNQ
Sequence of Rho-associated protein kinase 1 (Q13464 whole entry): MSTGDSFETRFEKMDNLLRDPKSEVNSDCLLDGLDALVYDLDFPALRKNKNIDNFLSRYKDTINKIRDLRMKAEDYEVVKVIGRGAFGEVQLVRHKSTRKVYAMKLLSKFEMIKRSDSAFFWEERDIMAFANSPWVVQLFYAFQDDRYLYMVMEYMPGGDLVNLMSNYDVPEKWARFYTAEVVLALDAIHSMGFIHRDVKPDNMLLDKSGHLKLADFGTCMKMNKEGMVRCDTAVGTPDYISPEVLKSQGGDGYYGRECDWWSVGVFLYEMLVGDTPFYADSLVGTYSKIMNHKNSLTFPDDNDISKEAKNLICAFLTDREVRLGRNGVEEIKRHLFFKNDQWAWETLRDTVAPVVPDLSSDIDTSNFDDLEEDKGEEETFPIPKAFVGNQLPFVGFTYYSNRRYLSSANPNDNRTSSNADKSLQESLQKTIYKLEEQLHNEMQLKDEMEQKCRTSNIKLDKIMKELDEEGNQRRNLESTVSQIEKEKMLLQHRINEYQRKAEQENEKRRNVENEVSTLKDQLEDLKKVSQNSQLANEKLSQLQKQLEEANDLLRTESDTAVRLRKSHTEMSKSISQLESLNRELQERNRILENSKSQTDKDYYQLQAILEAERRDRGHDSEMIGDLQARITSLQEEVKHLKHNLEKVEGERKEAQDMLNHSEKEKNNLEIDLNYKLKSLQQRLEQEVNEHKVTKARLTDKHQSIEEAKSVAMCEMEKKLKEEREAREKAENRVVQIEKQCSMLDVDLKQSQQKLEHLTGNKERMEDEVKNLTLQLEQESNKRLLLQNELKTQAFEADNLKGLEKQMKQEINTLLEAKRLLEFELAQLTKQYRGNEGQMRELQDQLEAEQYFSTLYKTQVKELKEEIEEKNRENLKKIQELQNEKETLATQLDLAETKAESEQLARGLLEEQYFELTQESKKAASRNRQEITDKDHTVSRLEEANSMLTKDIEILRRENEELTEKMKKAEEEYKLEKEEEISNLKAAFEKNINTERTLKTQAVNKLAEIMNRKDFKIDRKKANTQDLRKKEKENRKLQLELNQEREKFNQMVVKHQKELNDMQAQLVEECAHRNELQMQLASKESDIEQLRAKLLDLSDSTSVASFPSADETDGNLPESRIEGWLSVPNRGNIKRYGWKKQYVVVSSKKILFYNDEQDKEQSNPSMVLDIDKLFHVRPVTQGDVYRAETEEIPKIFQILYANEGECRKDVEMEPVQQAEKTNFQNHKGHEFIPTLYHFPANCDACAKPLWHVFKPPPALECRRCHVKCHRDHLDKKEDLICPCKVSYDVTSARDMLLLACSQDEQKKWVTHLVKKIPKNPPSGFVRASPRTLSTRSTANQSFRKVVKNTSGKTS
Sequence of Membrane-associated progesterone receptor component 1 (O00264 whole entry): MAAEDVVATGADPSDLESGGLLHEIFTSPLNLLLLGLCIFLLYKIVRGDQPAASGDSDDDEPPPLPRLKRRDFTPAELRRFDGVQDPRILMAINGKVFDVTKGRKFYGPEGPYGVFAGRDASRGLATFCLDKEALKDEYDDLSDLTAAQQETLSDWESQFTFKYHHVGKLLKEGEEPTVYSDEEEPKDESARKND

For `C=CCN(/C=C1/C(=O)O[C@H](COC)[C@@]2(C)C1=C(O)C(=O)C1=C2[C@H](OC(C)=O)C[C@]2(C)C(=O)CC[C@@H]12)CC=C` [SONOLISIB], the Kd in test [1] and in test [2] was > 30 µM (inactive) throughout.
In the case of `COc1cc2c(N3CCN(C(=O)Nc4ccc(OC(C)C)cc4)CC3)ncnc2cc1OCCCN1CCCCC1` [TANDUTINIB], the Kd in [3] is > 30 µM (inactive).
For the compound `O=c1[nH]c([C@@H]2CCCN2)nc2c1oc1ccc(Cl)cc12`, the Kd in [3], in test [1] and in test [4] was > 30 µM (inactive) throughout.
Regarding `CN1CCN(c2nc(C3=C(c4c[nH]c5ccccc45)C(=O)NC3=O)c3ccccc3n2)CC1` [SOTRASTAURIN], the Kd was > 30 µM (inactive) in test [5]; > 30 µM (inactive) in test [3]; 0.121 µM in test [6]; > 30 µM (inactive) in test [7]; > 30 µM (inactive) in test [8]; > 30 µM (inactive) in test [2].
Turning to `COc1ccc(-c2ccc3ncc4c(c3c2)n(-c2ccc(N3CCNCC3)c(C(F)(F)F)c2)c(=O)n4C)cn1` [BGT-226 FREE BASE], the Kd in [3], in test [6], in test [1], in test [7], in test [8] and in [4] was > 30 µM (inactive) each time. The Kd in test [2] was > 30 µM (inactive).
As to `CNC(=O)c1ccc(Nc2ncc(C(F)(F)F)c(NCc3nccnc3N(C)S(C)(=O)=O)n2)cc1` [DEFACTINIB], the Kd in [3], in [6], in test [1], in [4] and in test [2] was > 30 µM (inactive) throughout.
As to `Cc1cc(C(=O)Nc2cc(Oc3ccc4nc(NC(=O)C5CC5)cn4n3)ccc2C)n(C)n1` [TAK-593], the Kd in test [6], in test [1], in test [8] and in [2] was > 30 µM (inactive) throughout.
Regarding `C[C@@H]1COC(Nc2ccc3ncnc(Nc4ccc(OCc5nccs5)c(Cl)c4)c3c2)=N1` [VARLITINIB], the Kd was > 30 µM (inactive) in test [3]; > 30 µM (inactive) in test [6]; 0.005 µM (active) in test [1]; > 30 µM (inactive) in test [9]; > 30 µM (inactive) in [8]; > 30 µM (inactive) in test [4]. Besides, in test [2], the Kd is > 30 µM (inactive).
As for `COc1cc2ncnc3c2cc1OCCCCCN(C)Cc1ccc(Br)cc1N3` [JNJ-26483327], the Kd is > 30 µM (inactive) in [6]; 0.602 µM (active) in test [1]; > 30 µM (inactive) in test [7]; > 30 µM (inactive) in test [9]; > 30 µM (inactive) in test [8]; > 30 µM (inactive) in test [2].
For `CCOc1ccn(-c2ccc(F)cc2)c(=O)c1C(=O)Nc1ccc(Oc2ccnc(N)c2Cl)c(F)c1` [BMS-777607], the Kd in [3], in test [7] and in [2] was > 30 µM (inactive) in each case.
With `FC(F)(F)c1ccc(CNc2ccc(Cc3c[nH]c4ncc(Cl)cc34)cn2)cn1` [PEXIDARTINIB], the Kd in [3], in test [6], in [1], in test [9], in test [8] and in [4] was > 30 µM (inactive) each time. In test [2], the Kd is > 30 µM (inactive).
Regarding `CN(c1ncccc1CNc1nc(Nc2ccc3c(c2)CC(=O)N3)ncc1C(F)(F)F)S(C)(=O)=O` [PF-00562271], the Kd in test [5], in [7] and in test [4] was > 30 µM (inactive) in each case.
With `c1cc(OCCN2CCCCC2)cc(-c2n[nH]c3ccc(-c4nc[nH]n4)cc23)c1` [CC-401], the Kd in test [6], in [1], in test [9], in test [8] and in [4] was > 30 µM (inactive) each time.
`CC[C@@](C)(Nc1ccnc(-c2c[nH]c3ncccc23)n1)C(=O)NCC(F)(F)F` [DECERNOTINIB]: the Kd in [1] is > 30 µM (inactive); in test [8], > 30 µM (inactive); in test [4] it was > 30 µM (inactive); in [2], 13.5 µM (active).
For the compound `CC(C)(O)CC(=O)NCCn1ccc2ncnc(Nc3ccc(Oc4cccc(C(F)(F)F)c4)c(Cl)c3)c21` [TAK-285], the Kd in test [3], in test [8], in test [4] and in [2] was > 30 µM (inactive) each time.
With `CC(C)CC(=O)Nc1[nH]nc2c1CN(C(=O)C1CCN(C)CC1)C2(C)C` [PHA-793887], the Kd in [3] is > 30 µM (inactive); in test [6], 0.007 µM; in test [7] it was > 30 µM (inactive); in test [8] it was > 30 µM (inactive); in [4] it was > 30 µM (inactive).
Take `COc1cc2ncnc(Nc3ccc(O)cc3)c2cc1OC` [WHI-P131]: the Kd in [6] is > 30 µM (inactive); in test [1], 1.16 µM (active); in test [8], > 30 µM (inactive); in test [4] it was > 30 µM (inactive); in test [2] it was > 30 µM (inactive).
Regarding `CNC(=O)c1cc(COc2nnc(Nc3ccc(Cl)cc3)c3ccoc23)ccn1` [TELATINIB], the Kd in test [6], in [1], in [8] and in [4] was > 30 µM (inactive) throughout.
Take `C=CC(=O)Nc1cccc(Nc2nc(Nc3ccc(N4CCN(C(C)=O)CC4)cc3OC)ncc2C(F)(F)F)c1` [ROCILETINIB]: the Kd in test [6], in test [7], in test [8] and in test [2] was > 30 µM (inactive) in each case.
As for `O=S(=O)(c1cccc2cnccc12)N1CCCNCC1` [FASUDIL], the Kd in test [5] and in test [3] was > 30 µM (inactive) throughout.
Turning to `N#CCNC(=O)c1ccc(-c2ccnc(Nc3ccc(N4CCOCC4)cc3)n2)cc1` [MOMELOTINIB], the Kd is > 30 µM (inactive) in [6]; > 30 µM (inactive) in [7]; > 30 µM (inactive) in test [8]; > 30 µM (inactive) in [4]; 1.36 µM (active) in test [2].
For `NC[C@@](O)(c1ccc(Cl)cc1)c1ccc(-c2cn[nH]c2)cc1` [AT-13148], the Kd was > 30 µM (inactive) in [6]; > 30 µM (inactive) in test [1]; > 30 µM (inactive) in [7]; > 30 µM (inactive) in [4]; 0.027 µM (active) in test [2].
As to `CCc1nc(C(N)=O)c(Nc2ccc(N3CCC(N4CCN(C)CC4)CC3)c(OC)c2)nc1NC1CCOCC1` [GILTERITINIB], the Kd was 3.5 µM (active) in test [1], > 30 µM (inactive) in [8], > 30 µM (inactive) in [4] and > 30 µM (inactive) in test [2].
As for `Cc1c(NC(=O)OC[C@@H]2COCCN2)cn2ncnc(Nc3ccc4c(cnn4Cc4cccc(F)c4)c3)c12` [AC-480], the Kd in test [1] was 0.003 µM (active); in test [8] it was > 30 µM (inactive); in [2] it was > 30 µM (inactive).
Turning to `C[C@]1(O)C[C@@H](c2nc(-c3ccc4ccc(-c5ccccc5)nc4c3)c3c(N)nccn32)C1` [LINSITINIB], the Kd in test [5], in [3] and in [4] was > 30 µM (inactive) throughout.
